Source: BigSolDB 2.1

COc1cc(Cc2cnc(N)nc2N)cc(OC)c1OC
solubility (mole fraction)
Conditions	293.15 K	298.45 K	303.45 K	308.15 K	312.95 K	318.65 K	322.65 K
in acetonitrile	0.00035	0.000437	0.000534	0.000664	0.000809	0.00103	0.00127
in ethanol	0.00071	0.00092	0.00112	0.00134	0.00173	0.00226	0.00304
in ethyl acetate	0.000276	0.000332	0.000398	0.000481	0.000606	0.000773	0.000966
in isopropanol	0.000227	0.000294	0.000434	0.000543	0.000764	0.00106	0.00141
in water	2e-05	2.49e-05	3.02e-05	3.68e-05	4.68e-05	6.05e-05	7.14e-05
